Reference: US20110196000A1, “Use of succinate dehydrogenase (SDH) inhibitors in the treatment of plant species from the family of the true grasses” (Bayer CropScience AG, priority 2010, published 2011)

How the values were obtained:
Type in all cases: in vivo
wheat variety Ritmo [1] = test: Plot trial in Germany: green leaf area by visual scoring; conditions: for green leaf area of the flag leaf / green leaf area of the second-from-top leaf (F-1) / green leaf area of the third-from-top leaf (F-2): sprays at BBCH 39 and 59
In short: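 Field plot trial in Germany, wheat variety Ritmo, bixafen products sprayed sequentially at BBCH 39 and 59 at 400 l water/ha, 5 repetitions. Green leaf area duration followed by regular visual scoring of green leaf fraction.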

wheat variety Ritmo [2] = test: Plot trial: chlorophyll content of leaves (pigment extraction method of Ziegler and Ehle)
wheat variety Ritmo [3] = test: Plot trial: yield components; conditions: sprays at BBCH 39 and 59
[4] = system: infection-free wheat plants of the cultivar Passat; test: Glasshouse trial: green leaf area by visual scoring; conditions: for green leaf area of the flag leaf (F) / green leaf area of the second-from-top leaf (F-1) / green leaf area of the third-from-top leaf (F-2): glasshouse
In short: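 Infection-free wheat grown 4 months under controlled glasshouse conditions in 10-litre containers, 10 repetitions per trial component. Products applied as sequential sprays at BBCH 39 and 59 in 300 l water/ha. Duration of green leaf area scored visually at regular intervals.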

[5] = system: infection-free wheat plants of the cultivar Passat; test: Glasshouse trial: yield components
[6] = system: infection-free wheat plants of the cultivar Passat; test: Glasshouse trial: time of heading (ear emergence); set-up: time of heading of wheat (ears emerged): unit not given here
In short: (§1)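 Wheat grown in 10-litre containers for 4 months under controlled glasshouse conditions, in earth/C-horizon/sand (4:2:1) substrate, fed 0.2% liquid fertilizer every two weeks and watered as needed. Bixafen effects were assessed with 10 repetitions per trial component.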

[7] = system: infection-free wheat plants of the cultivar Passat; test: Glasshouse trial: temperature of ears and leaves as measure of transpiration activity
In short: as §1

[8] = system: infection-free wheat plants of the cultivar Passat; test: Glasshouse trial: gas exchange activity of wheat ears; conditions: development stage BBCH 75
In short: as §1

wheat = test: Effect on the number of kernels/ear; conditions: 1st. trial
[9] = 7 days after second fungicide application
[10] = 14 days after second fungicide application
[11] = 21 days after second fungicide application
[12] = 28 days after second fungicide application
[13] = 35 days after second fungicide application
[14] = 42 days after second fungicide application
[15] = 68 days after second fungicide application (so in the source)
[16] = 75 days after second fungicide application (so in the source)
[17] = 82 days after second fungicide application (so in the source)
[18] = 89 days after second fungicide application (so in the source)
[19] = 96 days after second fungicide application (so in the source)
[20] = 103 days after second fungicide application (so in the source)
[21] = 110 days after second fungicide application (so in the source)
[22] = 117 days after second fungicide application (so in the source)
[23] = glasshouse trial, statement in words
[24] = glasshouse, sprays at BBCH 39 and 59

Structure (SMILES): Cn1cc(C(=O)Nc2ccc(F)cc2-c2ccc(Cl)c(Cl)c2)c(C(F)F)n1 [Bixafen, N-(3′,4′-dichloro-5-fluoro-1,1′-biphenyl-2-yl)-3-(difluoromethyl)-1-methyl-1H-pyrazole-4-carboxamide]
- green leaf area of the flag leaf (wheat variety Ritmo [1]; [9]): 98.9 % leaf area
- green leaf area of the second-from-top leaf (F-1) (wheat variety Ritmo [1]; [9]): 98.4 % leaf area
- green leaf area of the third-from-top leaf (F-2) (wheat variety Ritmo [1]; [9]): 96.4 % leaf area
- green leaf area of the flag leaf (wheat variety Ritmo [1]; [10]): 98.7 % leaf area
- green leaf area of the second-from-top leaf (F-1) (wheat variety Ritmo [1]; [10]): 98.3 % leaf area
- green leaf area of the third-from-top leaf (F-2) (wheat variety Ritmo [1]; [10]): 96.3 % leaf area
- green leaf area of the flag leaf (wheat variety Ritmo [1]; [11]): 98.8 % leaf area
- green leaf area of the second-from-top leaf (F-1) (wheat variety Ritmo [1]; [11]): 98.5 % leaf area
- green leaf area of the third-from-top leaf (F-2) (wheat variety Ritmo [1]; [11]): 94.5 % leaf area
- green leaf area of the flag leaf (wheat variety Ritmo [1]; [12]): 96.7 % leaf area
- green leaf area of the second-from-top leaf (F-1) (wheat variety Ritmo [1]; [12]): 94.8 % leaf area
- green leaf area of the third-from-top leaf (F-2) (wheat variety Ritmo [1]; [12]): 91.8 % leaf area
- green leaf area of the flag leaf (wheat variety Ritmo [1]; [13]): 73.0 % leaf area
- green leaf area of the second-from-top leaf (F-1) (wheat variety Ritmo [1]; [13]): 60.0 % leaf area
- green leaf area of the third-from-top leaf (F-2) (wheat variety Ritmo [1]; [13]): 37.5 % leaf area
- green leaf area of the flag leaf (wheat variety Ritmo [1]; [14]): 26.7 % leaf area
- green leaf area of the second-from-top leaf (F-1) (wheat variety Ritmo [1]; [14]): 9.2 % leaf area
- green leaf area of the third-from-top leaf (F-2) (wheat variety Ritmo [1]; [14]): 3.4 % leaf area
- green leaf area of the second-from-top leaf (F-1) (wheat variety Ritmo [1]; 49 days after second fungicide application): 0 % leaf area
- effect on the duration of the green leaf area of the wheat plant (wheat variety Ritmo [1]; plot trial, statement in words): pronounced effect
- Chlorophyll content (wheat variety Ritmo [2]; BBCH 75 (mature milk), leaf F): 1763 µg/g
- Chlorophyll content (wheat variety Ritmo [2]; BBCH 75 (mature milk), leaf F-1): 1693 µg/g
- Chlorophyll content (wheat variety Ritmo [2]; BBCH 75 (mature milk), leaf F-2): 1243 µg/g
- Chlorophyll content (wheat variety Ritmo [2]; BBCH 85 (mature dough), leaf F): 738 µg/g
- Chlorophyll content (wheat variety Ritmo [2]; BBCH 85 (mature dough), leaf F-1): 631 µg/g
- Chlorophyll content (wheat variety Ritmo [2]; BBCH 85 (mature dough), leaf F-2): 404 µg/g
- chlorophyll content and breakdown of chlorophyll (wheat variety Ritmo [2]; alone or in combination with other active fungicidal ingredients, statement in words): the chlorophyll content overall is higher and the breakdown of chlorophyll is slower
- Ears/m^2 (wheat variety Ritmo [3]): 417
- Harvest Index (wheat variety Ritmo [3]): 58.5
- Straw (wheat variety Ritmo [3]): 590 g m^−2
- TKM (thousand-kernel mass) (wheat variety Ritmo [3]): 47.7 g
- Yield (wheat variety Ritmo [3]): 8.5 t ha^−1
- green leaf area of the flag leaf (F) [4, 15]: 100 % leaf area
- green leaf area of the second-from-top leaf (F-1) [4, 15]: 100 % leaf area
- green leaf area of the third-from-top leaf (F-2) [4, 15]: 100 % leaf area
- green leaf area of the flag leaf (F) [4, 16]: 100 % leaf area
- green leaf area of the second-from-top leaf (F-1) [4, 16]: 100 % leaf area
- green leaf area of the third-from-top leaf (F-2) [4, 16]: 95 % leaf area
- green leaf area of the flag leaf (F) [4, 17]: 100 % leaf area
- green leaf area of the second-from-top leaf (F-1) [4, 17]: 95 % leaf area
- green leaf area of the third-from-top leaf (F-2) [4, 17]: 80 % leaf area
- green leaf area of the flag leaf (F) [4, 18]: 95 % leaf area
- green leaf area of the second-from-top leaf (F-1) [4, 18]: 85 % leaf area
- green leaf area of the third-from-top leaf (F-2) [4, 18]: 52 % leaf area
- green leaf area of the flag leaf (F) [4, 19]: 88 % leaf area
- green leaf area of the second-from-top leaf (F-1) [4, 19]: 57 % leaf area
- green leaf area of the third-from-top leaf (F-2) [4, 19]: 29 % leaf area
- green leaf area of the flag leaf (F) [4, 20]: 65 % leaf area
- green leaf area of the second-from-top leaf (F-1) [4, 20]: 33 % leaf area
- green leaf area of the third-from-top leaf (F-2) [4, 20]: 15 % leaf area
- green leaf area of the flag leaf (F) [4, 21]: 38 % leaf area
- green leaf area of the second-from-top leaf (F-1) [4, 21]: 20 % leaf area
- green leaf area of the third-from-top leaf (F-2) [4, 21]: 6 % leaf area
- green leaf area of the flag leaf (F) [4, 22]: 15 % leaf area
- green leaf area of the second-from-top leaf (F-1) [4, 22]: 5 % leaf area
- green leaf area of the third-from-top leaf (F-2) [4, 22]: 0 % leaf area
- effect on the duration of the green leaf area of the wheat plant [4, 23]: pronounced effect
- yield components compared with the other comparison fungicides [5, 23]: a higher yield, a higher number of kernel/ear, a higher thousand-kernel mass and a lower straw fraction than the other comparison fungicides
- Ears/pot [5, 24]: 40.0
- Harvest Index [5, 24]: 29.8%
- Kernels/ear [5, 24]: 25.1
- Straw [5, 24]: 88.5 g/pot
- TKM (thousand-kernel mass) [5, 24]: 37.5 g
- Yield [5, 24]: 37.5 g/pot
- time of heading of wheat (ears emerged) ([6]; 45 days after sowing): 1.8
- time of heading of wheat (ears emerged) ([6]; 50 days after sowing): 15.5
- time of heading of wheat (ears emerged) ([6]; 55 days after sowing): 42.2
- time of heading of wheat (ears emerged) ([6]; 60 days after sowing): 57.0
- time of heading of wheat (ears emerged) ([6]; 65 days after sowing): 78.0
- time of heading of wheat (ears emerged) ([6]; 70 days after sowing): 88.7
- time of heading of wheat (ears emerged) ([6]; 75 days after sowing): 93.5
- time of heading of wheat (ears emerged) ([6]; 80 days after sowing): 96.7
- time of heading of wheat (ears emerged) ([6]; 85 days after sowing): 98.5
- uniformity of heading (ear emergence) [6, 23]: the heading is more uniform
- Temperature (as a measure of the transpiration activity) ([7]; BBCH 75, ear): 22.3 °C
- Temperature (as a measure of the transpiration activity) ([7]; BBCH 75, leaf): 22.1 °C
- Temperature (as a measure of the transpiration activity) ([7]; BBCH 80, ear): 18.2 °C
- Temperature (as a measure of the transpiration activity) ([7]; BBCH 80, leaf): 16.4 °C
- Temperature (as a measure of the transpiration activity) ([7]; BBCH 85, ear): 24.5 °C
- Temperature (as a measure of the transpiration activity) ([7]; BBCH 85, leaf): 23.3 °C
- Temperature (as a measure of the transpiration activity) ([7]; BBCH 90, ear): 24.1 °C
- Temperature (as a measure of the transpiration activity) ([7]; BBCH 90, lear (so in the source)): 22.3 °C
- Photosynthesis (gas exchange activity of wheat ears) [8]: -5.94 CO2 per ear
- Respiration (gas exchange activity of wheat ears) [8]: 6.12 CO2 per ear
- Kernels/ear (wheat; applied at BBCH 33 + 59, twice 125 g a.i.): 41.7
- Kernels/ear (wheat; applied at BBCH 39 (bixafen 125 g a.i.; bixafen + prothioconazole 75 + 150 g a.i.)): 42.6
